Source: paper PMC12372887, “Mechanism and cellular actions of the potent AMPK inhibitor BAY-3827” (Science Advances, 2025)
“Also recorded” adds a separate entry of the source.

Legend:
[1] = tested on: pSer79-ACC1 in U2OS cells; assay: HTRF assay of Ser79-ACC1 phosphorylation in U2OS cells; format: cell-based, human; conditions: for IC50: Homo sapiens, U2OS
Method: Human osteosarcoma U2OS WT cells were obtained from John Rouse (MRC Protein Phosphorylation and Ubiquitylation Unit, University of Dundee) and were cultured in DMEM high glucose + GlutaMAX Supplement, pyruvate (Thermo Fisher Scientific, catalog no. 31966-021) containing penicillin G (100 U/ml), streptomycin (100 μg/ml), and 10% (v/v) FBS seeding with 50,000 cells per well in a 50-μl volume in culture 96-well cell culture plates (Corning Incorporated costar, #3599). The next day, the media were changed to 50 μl of serum-free media, and 50 μl of serum-free media containing BAY-3827 or BAY-974 was dispensed and left to incubate at 37°C for 30 min. […] HTRF assays using either phospho-Ser^79-ACC1 kit (Revvity, #64ACCPEG) or phospho-Thr^172-AMPK kit (Revvity, #64AMPKPEG) were performed in triplicate in HTRF 96-well low volume white plates (Revvity, #66PL96001) following manufacturer’s instructions. Sealed plates incubated overnight in darkness conditions were scanned at room temperature in Multimode Plate Reader EnVision (PerkinElmer) machine following HTRF setup recommendations for EnVision (Revvity), equipped with a top mirror LANCE/DELFIA single mirror (#412), a UV2 (TRF) 320 excitation filter (#111), emission filter APC 665 (#205), and second emission filter Europium 615 (#203), with a 2000-μs cycle and 60-μs delay, with the number of flashes set to 100 as well as for the 2nd detector. Results were viewed in EnVision Manager software (version 1.13.3009.1401) where 665/615 ratios were calculated, and data were normalized to control condition as %. All assay ratios between control lysate signal/nonspecific signal were greater than 2 as expected of a successful assay following the manufacturer’s instructions. Data were visualized in GraphPad Prism v10.

[2] = tested on: mouse primary hepatocytes; assay: Immunoblot of AMPK signaling in primary hepatocytes; format: cell-based
Method: (§1) Mouse hepatocytes were isolated by collagenase perfusion as previously described ([47]). Hepatocytes were seeded in medium Eagle-199 (MEM-199) (#41150, Thermo Fisher Scientific) containing penicillin G (100 U/ml), streptomycin (100 μg/ml), and 10% (v/v) fetal bovine serum (FBS). Hepatocytes were left for attachment (3 to 4 hours) and serum-starved overnight at 37°C with 5% CO2 in MEM-199 supplemented with penicillin G (100 U/ml), streptomycin (100 μg/ml), 10 nM insulin, and 100 nM dexamethasone. […] Cells were then harvested in 0.5 ml of phosphate-buffered saline (PBS), transferred into 1 ml of 40% KOH and 2 ml of methanol followed by 1-hour incubation at 80°C. Lipids were […] by acidifying the samples in 37% HCl and extracted with petroleum ether. Extracts were allowed to evaporate to dryness and then dissolved in Ultima Gold scintillation fluid for determination of [^14C]-acetate incorporation into lipids.
Following compound treatment, the cells were washed with room temperature PBS and lysed on ice with the addition of lysis buffer [50 mM tris-HCl (pH 7.5), 150 mM NaCl, 1 mM EDTA, 1 mM EGTA, 0.27 M sucrose, 1% w/v Triton X-100, 20 mM glycerol-2 phosphate disodium, 50 mM NaF, and 5 mM Na4P2O7.10 H2O] containing proteases and phosphatase inhibitors [0.5 mM phenylmethylsulfonyl fluoride (PMSF), 1 mM benzamidine HCl, leupeptin (1 μg/ml), pepstatin A (1 μg/ml), 1 μM microcystin-LR, 1 mM Na3VO4, and 1 mM DTT]. Lysates were centrifuged at 10,000g, 4°C for 10 min, and protein concentration of the supernatant was determined with the Pierce Bradford Protein Assay Kit (Thermo Fisher Scientific, #23200) and read on the Hidex Plate Reader (software version 0.5.64.0). Samples were prepared in Laemmli sample buffer (tris 200 mM, 8% SDS, EDTA 2 mM, and 40% glycerol) supplemented with 10% DTT and boiled for 5 min at 100°C. Ten micrograms of protein per sample was run on a Criterion tris-glycine polyacrylamide gel (Bio-Rad, #5678095) and transferred to a nitrocellulose membrane. For cell signaling experiments in HEK293 cells, the samples were run on a Criterion TGX stain-free precast gel (Bio-Rad, catalog no. 5678085) with transfer to a polyvinylidene difluoride membrane performed in Bio-Rad Criterion blotter (#1704071) using tris-glycine transfer buffer (Bio-Rad, #1610734) following the manufacturer’s instructions. […]

[3] = tested on: AMPKα1α2+/+ control primary hepatocytes; assay: Lipogenesis assay ([14C]-acetate incorporation into fatty acids); format: cell-based, mouse
Method: as §1

[4] = in the presence of MK-8722 (10 μM)

| SMILES | inhibition of ACC1 phosphorylation ([1]; up to highest tested concentration of 100 μM) | levels of pACC1, pRaptor, or pAMPK ([2]; 5 μM, with or without MK-8722) | effect on lipogenesis ([3]; 5 μM, vehicle- and MK-8722–treated conditions) | IC50 ([1]; + MK-8722 (10 μM)) [µM] | IC50 ([1]; without MK-8722) [µM] | concentration giving full inhibition of ACC1 phosphorylation [2, 4] [µM] | concentration giving full inhibition of Raptor phosphorylation [2, 4] [µM] | increased pThr172AMPK levels ([2]; with or without MK-8722 (10 μM)) | rescue of MK-8722–mediated inhibition of lipogenesis ([3]; 2.5 and 5 μM, + MK-8722 (10 μM)) | stimulation of lipogenesis ([3]; compound alone, 2.5 and 5 μM) [%] |
| --- | --- | --- | --- | --- | --- | --- | --- | --- | --- | --- |
| CC1=C(C#N)C(c2ccc3c(c2)c(NC(=O)c2ccccc2C)nn3C)C(C#N)=C(C)N1 [BAY-974, N-[5-(3,5-dicyano-2,6-dimethyl-1,4-dihydropyridin-4-yl)-1-methylindazol-3-yl]-2-methylbenzamide] | No inhibition | no effect | no effect | – | – | – | – | – | – | – |
| CCc1ccccc1C(=O)Nc1n[nH]c2c(C)c(F)c(C3C(C#N)=C(C)N(C)C(C)=C3C#N)cc12 [BAY-3827, N-[5-(3,5-dicyano-1,2,6-trimethyl-4H-pyridin-4-yl)-6-fluoro-7-methyl-1H-indazol-3-yl]-2-ethylbenzamide] | – | – | – | 6.36 | 0.93 | 5 | 2.5 | only significant under MK-8722–treated conditions at 5 μM | dose-dependently rescued; also recorded: fully reversing | 70 to 90 |
